In article PMC7947880 (Molecular Biology and Evolution, 2020):
Like-named read-outs stand apart in the source and are kept apart here.

What was measured:
[1] = molecular target: T1, CYP51fx (sterol 14α-demethylase) (Methylococcus capsulatus, UniProt Q603T8); assay: UV-visible spectral titration; format: binding
T1 sequence (Q603T8 1-551): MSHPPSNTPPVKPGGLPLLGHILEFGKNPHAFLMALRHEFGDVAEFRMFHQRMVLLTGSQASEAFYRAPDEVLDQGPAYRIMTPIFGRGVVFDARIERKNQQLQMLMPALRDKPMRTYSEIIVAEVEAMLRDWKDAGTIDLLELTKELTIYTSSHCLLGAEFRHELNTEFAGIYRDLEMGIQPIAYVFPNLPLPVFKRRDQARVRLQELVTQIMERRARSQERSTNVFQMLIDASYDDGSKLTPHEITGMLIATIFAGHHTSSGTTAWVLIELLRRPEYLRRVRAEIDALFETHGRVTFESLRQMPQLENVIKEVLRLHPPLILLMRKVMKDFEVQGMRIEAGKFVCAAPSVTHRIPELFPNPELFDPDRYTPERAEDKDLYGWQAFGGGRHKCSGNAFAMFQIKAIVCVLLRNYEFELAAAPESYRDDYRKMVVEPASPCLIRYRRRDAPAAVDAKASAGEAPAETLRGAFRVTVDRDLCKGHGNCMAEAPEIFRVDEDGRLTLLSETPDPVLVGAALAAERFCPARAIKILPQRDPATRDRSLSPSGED

[2] = molecular target: T1, CYP51fx (sterol 14α-demethylase); assay: UV-visible spectral titration; format: binding; remark: listed apart in the source
[3] = molecular target: T1, CYP51fx (sterol 14α-demethylase); assay: UV-visible spectral titration; format: binding; remark: listed apart in the source
[4] = molecular target: T1, CYP51fx (sterol 14α-demethylase); format: biochemical

Structure (SMILES) | Kd [2] | Kd [3] | also measured
CC(C)=CCC[C@@H](C)[C@H]1CC[C@@]2(C)[C@@H]3CC=C4[C@@H](CC[C@H](O)C4(C)C)[C@]3(C)CC[C@]12C [cucurbitadienol] | – | – | Kd [1]: 670 nM
CC(C)=CCC[C@@H](C)[C@H]1CC[C@@]2(C)[C@@H]3CC[C@H]4C(C)(C)[C@@H](O)CC[C@@]45C[C@@]35CC[C@]12C [cycloartenol] | 460 nM | – | –
C=C(CC[C@@H](C)[C@H]1CC[C@@]2(C)C3=C(CC[C@]12C)[C@@]1(C)CC[C@H](O)C(C)(C)[C@@H]1CC3)C(C)C [eburicol] | – | 48 ± 4 nM | –
CC(C)=CCC[C@@H](C)[C@H]1CC[C@@]2(C)C3=C(CC[C@]12C)[C@@]1(C)CC[C@H](O)C(C)(C)[C@@H]1CC3 [lanosterol] | – | 94 ± 11 nM | –
C=C(CC[C@@H](C)[C@H]1CC[C@@]2(C)C3=C(CC[C@]12C)[C@@]1(C)CC[C@H](O)[C@@H](C)[C@@H]1CC3)C(C)C [obtusifoliol] | – | – | reconstituted 14α-demethylase turnover of radiolabeled sterol with E. coli flavo [4]: 1.2 min⁻¹
CC(C)=CCC[C@@H](C)[C@H]1CC[C@@]2(C)[C@@H]3CC[C@H]4C(C)(C)[C@@H](O)CC[C@]4(C)C3=CC[C@]12C [parkeol] | 260 nM | – | –
